# Laboratory results published in ChEMBL document CHEMBL1201862, “PubChem BioAssay data set” (2004).
#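 Grown in 96-well plates, cells were treated for 48 hours with each compound at five concentrations. Insufficient inhibition: endpoint recorded as highest concentration tested. At the GI50, growth is halved.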 The source made the active and inactive calls. Rule as the data show it: active = GI50 up to about 1.1 µM and inactive = higher.
# Columns and labels:
# Test in all cases: NCI tumour cell line growth inhibition, 48 h
# A549 = tested on: A549
# COLO 205 = tested on: COLO 205
# EKVX = tested on: EKVX
# HL-60 = tested on: HL-60
# HOP-92 = tested on: HOP-92
# HT-29 = tested on: HT-29
# Hs-578T = tested on: Hs-578T
# IGROV-1 = tested on: IGROV-1
# MDA-MB-435 = tested on: MDA-MB-435
# Malme-3M = tested on: Malme-3M
# NCI-H23 = tested on: NCI-H23
# SF-539 = tested on: SF-539
# SK-MEL-28 = tested on: SK-MEL-28
# SK-MEL-5 = tested on: SK-MEL-5
# SN12C = tested on: SN12C
# SNB-19 = tested on: SNB-19
# SNB-75 = tested on: SNB-75
# UACC-257 = tested on: UACC-257
# UO-31 = tested on: UO-31
# MDA-N = tested on: MDA-N
Structure (SMILES),GI50 (A549),GI50 (COLO 205),GI50 (EKVX),GI50 (HL-60),GI50 (HOP-92),GI50 (HT-29),GI50 (Hs-578T),GI50 (IGROV-1),GI50 (MDA-MB-435),GI50 (Malme-3M),GI50 (NCI-H23),GI50 (SF-539),GI50 (SK-MEL-28),GI50 (SK-MEL-5),GI50 (SN12C),GI50 (SNB-19),GI50 (SNB-75),GI50 (UACC-257),GI50 (UO-31),GI50 (MDA-N)
Cc1cc(SCC(=O)c2ccccc2)nc2ccccc12,67.1 µM (inactive),> 100 µM (inactive),8.11 µM (inactive),> 100 µM (inactive),> 100 µM (inactive),40.1 µM (inactive),< 0.01 µM (active),> 100 µM (inactive),> 100 µM (inactive),> 100 µM (inactive),> 100 µM (inactive),> 100 µM (inactive),> 100 µM (inactive),> 100 µM (inactive),> 100 µM (inactive),> 100 µM (inactive),36.7 µM (inactive),> 100 µM (inactive),73.5 µM (inactive),
O=C(/C=C1\Nc2ccccc2C(=O)N1c1ccccc1Cl)c1ccccc1,87.5 µM (inactive),> 100 µM (inactive),> 100 µM (inactive),47 µM (inactive),17.9 µM (inactive),64.7 µM (inactive),,> 100 µM (inactive),,> 100 µM (inactive),> 100 µM (inactive),> 100 µM (inactive),> 100 µM (inactive),> 100 µM (inactive),> 100 µM (inactive),> 100 µM (inactive),32.7 µM (inactive),> 100 µM (inactive),> 100 µM (inactive),
CN(C)c1nc(NN)c2c(-c3ccccc3)c(-c3ccccc3)oc2n1,> 100 µM (inactive),> 100 µM (inactive),> 100 µM (inactive),,> 100 µM (inactive),98.4 µM (inactive),45.8 µM (inactive),> 100 µM (inactive),> 100 µM (inactive),,> 100 µM (inactive),> 100 µM (inactive),> 100 µM (inactive),,> 100 µM (inactive),> 100 µM (inactive),96.8 µM (inactive),> 100 µM (inactive),> 100 µM (inactive),
COc1ccc(N2C(=O)CC(=O)N(C(=O)COc3ccc(OCC(=O)N4C(=O)CC(=O)N(c5ccc(OC)cc5)C4=S)cc3)C2=S)cc1,35.8 µM (inactive),18.9 µM (inactive),92.9 µM (inactive),,40.9 µM (inactive),47.8 µM (inactive),,47.9 µM (inactive),36.9 µM (inactive),68.2 µM (inactive),38.1 µM (inactive),,48.1 µM (inactive),36.8 µM (inactive),43.3 µM (inactive),40.3 µM (inactive),54 µM (inactive),43.9 µM (inactive),42.5 µM (inactive),37.8 µM (inactive)
O=C(O)c1cc2ccccc2c(/N=N/c2ccc(S(=O)(=O)Nc3ncccn3)cc2)c1O,> 100 µM (inactive),> 100 µM (inactive),> 100 µM (inactive),> 100 µM (inactive),> 100 µM (inactive),> 100 µM (inactive),> 100 µM (inactive),> 100 µM (inactive),> 100 µM (inactive),> 100 µM (inactive),,> 100 µM (inactive),> 100 µM (inactive),> 100 µM (inactive),,> 100 µM (inactive),> 100 µM (inactive),> 100 µM (inactive),> 100 µM (inactive),
FC1=C2C3CCC(C3)C2C1(F)F (centres undefined),> 100 µM (inactive),> 100 µM (inactive),> 100 µM (inactive),81.7 µM (inactive),,> 100 µM (inactive),,> 100 µM (inactive),> 100 µM (inactive),> 100 µM (inactive),> 100 µM (inactive),> 100 µM (inactive),> 100 µM (inactive),> 100 µM (inactive),> 100 µM (inactive),> 100 µM (inactive),> 100 µM (inactive),> 100 µM (inactive),> 100 µM (inactive),> 100 µM (inactive)
CC(C)=C/C=C1/CS(=O)(=O)C=C1C,> 100 µM (inactive),> 100 µM (inactive),> 100 µM (inactive),> 100 µM (inactive),,> 100 µM (inactive),,> 100 µM (inactive),> 100 µM (inactive),> 100 µM (inactive),> 100 µM (inactive),> 100 µM (inactive),> 100 µM (inactive),> 100 µM (inactive),> 100 µM (inactive),> 100 µM (inactive),> 100 µM (inactive),> 100 µM (inactive),> 100 µM (inactive),> 100 µM (inactive)
CCN(CCN(CC)C(=O)Nc1ccccc1)C(=O)Nc1ccccc1,> 100 µM (inactive),> 100 µM (inactive),> 100 µM (inactive),> 100 µM (inactive),> 100 µM (inactive),> 100 µM (inactive),> 100 µM (inactive),> 100 µM (inactive),,> 100 µM (inactive),> 100 µM (inactive),,> 100 µM (inactive),> 100 µM (inactive),> 100 µM (inactive),> 100 µM (inactive),> 100 µM (inactive),> 100 µM (inactive),> 100 µM (inactive),
O=C(CC(C(=O)c1ccsc1)c1cccs1)c1cccs1 (centres undefined),42.6 µM (inactive),94.8 µM (inactive),42.5 µM (inactive),56.8 µM (inactive),> 100 µM (inactive),82.2 µM (inactive),,> 100 µM (inactive),,> 100 µM (inactive),> 100 µM (inactive),> 100 µM (inactive),> 100 µM (inactive),22.9 µM (inactive),65.8 µM (inactive),> 100 µM (inactive),28.1 µM (inactive),51.4 µM (inactive),28.1 µM (inactive),
CCc1nnc(CC)n1N1C(=O)CCC1=O,> 100 µM (inactive),> 100 µM (inactive),> 100 µM (inactive),,> 100 µM (inactive),> 100 µM (inactive),,> 100 µM (inactive),> 100 µM (inactive),,> 100 µM (inactive),> 100 µM (inactive),> 100 µM (inactive),> 100 µM (inactive),> 100 µM (inactive),> 100 µM (inactive),> 100 µM (inactive),> 100 µM (inactive),> 100 µM (inactive),> 100 µM (inactive)
COC(=O)[C@]1(c2cc3ccccc3[nH]2)CC2CN(CC(=O)N(C)OC)C1CC2(OC)OC (some centres undefined),47.1 µM (inactive),83.6 µM (inactive),56.6 µM (inactive),19.4 µM (inactive),87.5 µM (inactive),35.2 µM (inactive),,48.3 µM (inactive),27.5 µM (inactive),24.3 µM (inactive),36 µM (inactive),44.4 µM (inactive),> 100 µM (inactive),40.6 µM (inactive),41.2 µM (inactive),> 100 µM (inactive),63.8 µM (inactive),71.3 µM (inactive),40.2 µM (inactive),33.4 µM (inactive)
O=c1oc2cc(O)ccc2cc1-c1nc2ccccc2s1,19.1 µM (inactive),0.109 µM (active),27.2 µM (inactive),16.1 µM (inactive),27.7 µM (inactive),29 µM (inactive),,35.4 µM (inactive),27.3 µM (inactive),,21.1 µM (inactive),24.7 µM (inactive),0.0656 µM (active),11.1 µM (inactive),21.8 µM (inactive),30.8 µM (inactive),,22.6 µM (inactive),16.4 µM (inactive),19.1 µM (inactive)
